From ChEMBL document CHEMBL1154960, “Development of improved inhibitors of wall teichoic acid biosynthesis with potent activity against Staphylococcus aureus” (Bioorg Med Chem Lett, 2010)
Values after ≈ are worked out from the molar mass of the structure shown. Active and inactive are the calls of the source. The calls are words filed in the database; no cut-off is given here.

What was measured:
[1] = test system: Staphylococcus aureus; experiment: Antibacterial activity against Staphylococcus aureus RN4220 assessed as growth inhibition at 100 uM after 12 hrs by optical density plate reader method; type: functional
[2] = test system: Staphylococcus aureus; experiment: Antibacterial activity against tarO deficient Staphylococcus aureus RN4220 assessed as growth inhibition at 100 uM after 12 hrs by optical density plate reader method; type: functional; settings: RN4220, 12 h, read-out: GI
[3] = test system: Staphylococcus aureus; experiment: Antibacterial activity against Staphylococcus aureus RN4220 after 12 hrs by optical density plate reader method; type: functional
[4] = test system: Staphylococcus aureus; experiment: Antibacterial activity against methicillin-resistant Staphylococcus aureus COL after 12 hrs by optical density plate reader method; type: functional
[5] = test system: Mus musculus; experiment: Toxicity in CD1 mouse at 75 mg/kg, iv after 24 hrs; type: organism-based; design: dose 75 mg/kg, route intravenous; settings: in vivo
[6] = test system: Staphylococcus aureus; experiment: Antibacterial activity against methicillin-sensitive Staphylococcus aureus RN6390 after 12 hrs by optical density plate reader method; type: functional; settings: RN6390, 12 h
[7] = test system: Mus musculus; experiment: Toxicity in CD1 mouse at 100 mg/kg, iv; type: organism-based; design: dose 100 mg/kg, route intravenous; settings: in vivo
[8] = test system: Staphylococcus aureus; experiment: Antibacterial activity against methicillin-sensitive Staphylococcus aureus Newman after 12 hrs by optical density plate reader method; type: functional
[9] = test system: Staphylococcus aureus; experiment: Antibacterial activity against Staphylococcus aureus RN4220 after 12 hrs by optical density plate reader method in presence of 50% fetal bovine serum; type: functional
[10] = test system: Staphylococcus aureus; experiment: Antibacterial activity against methicillin-resistant Staphylococcus aureus MW2 after 12 hrs by optical density plate reader method; type: functional; settings: MW2, 12 h
[11] = test system: Staphylococcus aureus; experiment: Antibacterial activity against tarO deficient Staphylococcus aureus RN4220 after 12 hrs by optical density plate reader method; type: functional; settings: RN4220, 12 h
[12] = test system: Staphylococcus aureus; experiment: Antibacterial activity against Staphylococcus aureus RN4220 assessed as cell survival at 100 uM after 12 hrs by optical density plate reader method; type: functional; settings: RN4220, 12 h
[13] = test system: Staphylococcus aureus; experiment: Antibacterial activity against tarO deficient Staphylococcus aureus RN4220 assessed as cell survival at 100 uM after 12 hrs by optical density plate reader method; type: functional; settings: RN4220, 12 h
[14] = test system: Staphylococcus aureus; experiment: Bacteriostatic activity against Staphylococcus aureus RN4220 assessed as reduction in CFU at 8 times MIC up to 8 hrs by kill curve analysis; type: functional, organism-based
[15] = Staphylococcus aureus, RN4220, 12 h, read-out: GI
[16] = Staphylococcus aureus, RN4220, 12 h, read-out: MIC

| SMILES | inhibition of growth at 100 µM [1, 15] | inhibition of growth at 100 µM [2] | survival at 100 µM [12] | survival at 100 µM [13] | other results |
| --- | --- | --- | --- | --- | --- |
| CCN(CC)c1nc2c(S(=O)(=O)c3ccccc3)nnn2c2cc(C)ccc12 | < 30% | < 30% |  |  |  |
| CCN(CC)c1nc2c(S(=O)(=O)c3ccccc3)nnn2c2cc3c(cc12)OCCO3 | < 30% | < 30% |  |  |  |
| CCCN(CCOC)c1nc2c(S(=O)(=O)c3ccc(C)cc3)nnn2c2cc(OC)c(OC)cc12 | 31% |  |  |  |  |
| CCN(c1nc2c(S(=O)(=O)c3ccc(Cl)cc3)nnn2c2cc(OC)c(OC)cc12)C(C)C |  | < 30% |  |  | MIC [3, 16]: 2.5 µM (≈ 1.22 µg/mL) |
| CCN(CC)c1nc2c(S(=O)(=O)c3ccc(Cl)cc3)nnn2c2cc(OC)c(OC)cc12 |  | < 30% |  |  | MIC [4]: 0.6 µM (≈ 0.286 µg/mL); MIC [3, 16]: 0.3 µM (≈ 0.143 µg/mL); Activity [5]: Non-toxic; MIC [6]: 0.3 µM (≈ 0.143 µg/mL); Activity [7]: Toxic; MIC [8]: 0.3 µM (≈ 0.143 µg/mL); fold change (FC) [9]: 8; MIC [10]: 0.6 µM (≈ 0.286 µg/mL) |
| CCN(CC)c1nc2c(S(=O)(=O)c3ccc(C)cc3)nnn2c2cc(OC)c(OC)cc12 |  | < 30% |  |  | MIC [3, 16]: 2.5 µM (≈ 1.14 µg/mL) |
| CCCCN(CC)c1nc2c(S(=O)(=O)c3ccc(C)cc3)nnn2c2cc(OC)c(OC)cc12 |  |  |  |  | MIC [3, 16]: 3.1 µM (≈ 1.5 µg/mL) |
| CCN(CC)c1nc2c(S(=O)(=O)c3ccccc3)nnn2c2cc([N+](=O)[O-])ccc12 |  |  |  |  | MIC [3, 16]: 100 µM (≈ 42.6 µg/mL); MIC [11]: 50 µM (≈ 21.3 µg/mL) |
| COc1cc2c(N3CCCCC3)nc3c(S(=O)(=O)c4ccc(C)cc4)nnn3c2cc1OC | > 31% |  |  |  |  |
| Cn1c(=O)c2c(-c3ccccc3)n3c(c2n(C)c1=O)C(c1ccc(F)cc1)Nc1ccccc1-3 (configuration not stated) |  |  | 26% | 48% |  |
| CCN(CC)c1nc2c(S(=O)(=O)c3ccccc3)nnn2c2ccc(F)cc12 | > 31% | < 30% |  |  |  |
| CCN(CC)c1nc2c(S(=O)(=O)c3ccccc3)nnn2c2ccc(OC)cc12 |  |  |  |  | MIC [3]: 25 µM (≈ 10.3 µg/mL) |
| CCN(CC)c1nc2c(S(=O)(=O)c3ccccc3)nnn2c2cc(Cl)ccc12 | < 30% | < 30% |  |  |  |
| Cc1ccc(-c2c3c(=O)n(C)c(=O)n(C)c3c3n2-c2ccccc2NC3c2ccc(C#N)cc2)cc1 (configuration not stated) |  |  | 95% | 81% |  |
| Cc1ccc(C2Nc3cc(C)c(C)cc3-n3c(-c4ccccc4)c4c(=O)n(C)c(=O)n(C)c4c32)o1 (configuration not stated) |  |  | 95% | 92% |  |
| Cn1c(=O)c2c(-c3ccccc3)n3c(c2n(C)c1=O)C(c1ccco1)Nc1ccccc1-3 (configuration not stated) |  |  | 100% | 98% |  |
| COc1cc2c(N3CCc4ccccc4C3)nc3c(S(=O)(=O)c4ccc(C)cc4)nnn3c2cc1OC | 31% | > 70% |  |  |  |
| Cc1ccc(C2Nc3ccccc3-n3c(-c4ccccc4)c4c(=O)n(C)c(=O)n(C)c4c32)o1 (configuration not stated) |  |  | 101% | 110% |  |
| CCN(CC)c1nc2c(S(=O)(=O)c3ccccc3)nnn2c2cccc(Cl)c12 | < 30% | < 30% |  |  |  |
| CCN(CC)c1nc2c(S(=O)(=O)c3ccccc3)nnn2c2c(Cl)cccc12 | < 30% | < 30% |  |  |  |

| SMILES | inhibition of growth at 100 µM [1, 15] | inhibition of growth at 100 µM [2] | survival at 100 µM [12] | survival at 100 µM [13] | other results |
| --- | --- | --- | --- | --- | --- |
| CCN(CC)c1nc2c(S(=O)(=O)c3ccccc3)nnn2c2ccc(C)cc12 |  | < 30% |  |  | MIC [3, 16]: 25 µM (≈ 9.89 µg/mL) |
| COc1ccc(C2Nc3ccccc3-n3c(-c4ccccc4)c4c(=O)n(C)c(=O)n(C)c4c32)cc1 (configuration not stated) |  |  | 37% | 81% |  |
| Cn1c(=O)c2c(-c3ccccc3)n3c(c2n(C)c1=O)C(c1cccc([N+](=O)[O-])c1)Nc1ccccc1-3 (configuration not stated) |  |  | 64% | 74% |  |
| COc1ccc(-c2c3c(=O)n(C)c(=O)n(C)c3c3n2-c2ccccc2NC3c2ccc(OC)cc2)cc1 (configuration not stated) |  |  | 93% | 88% |  |
| COc1ccc(-c2c3c(=O)n(C)c(=O)n(C)c3c3n2-c2ccccc2NC3c2cc(O)ccc2O)cc1 (configuration not stated) |  |  | 0% | 26% |  |
| Cn1c(=O)c2c(-c3ccccc3)n3c(c2n(C)c1=O)C(c1cc(Cl)ccc1O)Nc1ccccc1-3 (configuration not stated) |  |  | 35% | 78% |  |
| Cc1cc2c(cc1C)-n1c(-c3ccccc3)c3c(=O)n(C)c(=O)n(C)c3c1C(c1ccco1)N2 (configuration not stated) |  |  | 94% | 103% |  |
| COc1cc2c(N3CCN(c4ccccc4)CC3)nc3c(S(=O)(=O)c4ccc(C)cc4)nnn3c2cc1OC | > 31% | > 70% |  |  |  |
| Cc1ccc(C2Nc3ccccc3-n3c(-c4ccccc4)c4c(=O)n(C)c(=O)n(C)c4c32)cc1 (configuration not stated) |  |  | 4% | 70% |  |
| CCN(CC)c1nc2c(S(=O)(=O)c3ccccc3)nnn2c2ccc(Br)cc12 |  |  |  |  | MIC [3, 16]: 12.5 µM (≈ 5.75 µg/mL) |
| CCN(c1nc2c(S(=O)(=O)c3ccc(C)cc3)nnn2c2cc(OC)c(OC)cc12)C(C)C |  |  |  |  | MIC [3, 16]: 1.6 µM (≈ 0.751 µg/mL) |
| CCCN(CCC)c1nc2c(S(=O)(=O)c3ccc(C)cc3)nnn2c2cc(OC)c(OC)cc12 |  |  |  |  | MIC [3, 16]: 6.3 µM (≈ 3.05 µg/mL) |
| CCN(CC)c1nc2c(S(=O)(=O)c3ccccc3)nnn2c2cc(OC)c(OC)cc12 |  | < 30% |  |  | MIC [4]: 3.1 µM (≈ 1.37 µg/mL); MIC [3, 16]: 1.8 µM (≈ 0.795 µg/mL); MIC [6]: 3.1 µM (≈ 1.37 µg/mL); MIC [8]: 3.1 µM (≈ 1.37 µg/mL); MIC [10]: 3.1 µM (≈ 1.37 µg/mL) |
| CCN(CC)c1nc2c(S(=O)(=O)c3ccccc3)nnn2c2ccc([N+](=O)[O-])cc12 |  |  |  |  | inhibition of growth at 100 µM [1]: > 31% |
| CCN(CC)c1nc2c(S(=O)(=O)c3ccccc3)nnn2c2ccc(Cl)cc12 |  | < 30% |  |  | Activity [14]: Active; MIC [4]: 6.3 µM (≈ 2.62 µg/mL); MIC [3, 16]: 3.6 µM (≈ 1.5 µg/mL); MIC [6]: 6.3 µM (≈ 2.62 µg/mL); MIC [8]: 12.5 µM (≈ 5.2 µg/mL); MIC [10]: 6.3 µM (≈ 2.62 µg/mL) |
| COc1ccccc1C1Nc2ccccc2-n2c(-c3ccccc3)c3c(=O)n(C)c(=O)n(C)c3c21 (configuration not stated) |  |  | 85% | 123% |  |
| CCN(CC)c1nc2c(S(=O)(=O)c3ccccc3)nnn2c2cc(OC)ccc12 | > 31% | > 31% |  |  |  |
| CCN(CC)c1nc2c(S(=O)(=O)c3ccccc3)nnn2c2cc(Br)ccc12 | > 31% |  |  |  | MIC [11]: 100 µM (≈ 46 µg/mL) |
| CCOCCN(CCOCC)c1nc2c(S(=O)(=O)c3ccc(C)cc3)nnn2c2cc(OC)c(OC)cc12 | 31% |  |  |  |  |
| Cn1c(=O)c2c(-c3ccccc3)n3c(c2n(C)c1=O)C(c1ccccc1[N+](=O)[O-])Nc1ccccc1-3 (configuration not stated) |  |  | 79% | 86% |  |
